The source of these data is patent publication US11713309B2, “Solid forms of Cerdulatinib” (Alexion Pharmaceuticals, Inc., priority 2018, dated 2023).

Holding throughout (type): physicochemical
The nature of data set [1]: Gravimetric vapor sorption (GVS) hygroscopicity. The following applies: for Crystalline form by XRPD post GVS analysis: exposure to humidity 0 to about 90% RH, about 25° C. As to the method: Sorption isotherms were obtained using a Hiden Isochema moisture sorption analyser (model IGAsorp), controlled by IGAsorp Systems Software v6.50.48. The sample was maintained at a constant temperature (25° C.) by the instrument controls. The humidity was controlled by mixing streams of dry and wet nitrogen, with a total flow of 250 mL·min^−1. The instrument was verified for relative humidity content by measuring three calibrated Rotronic salt solutions (10-50-88%). The weight change of the sample was monitored as a function of humidity by a microbalance (accuracy+/−0.005 mg). A defined amount of sample was placed in a tared mesh stainless steel basket under ambient conditions. A full experimental cycle consisted of two scans (sorption and desorption) at a constant temperature (25° C.) and 10% RH intervals over a 10-90% range (90 minutes for each humidity level).
The hygroscopicity of the esylate, mesylate, HCl, and sulfate salts/co-crystals of Compound I formed via the first scale up process was analyzed. All hygroscopicity experiments covered a wide range of humidity (0 to about 90% relative humidity) and were performed at about 25° C. to assess behavior.

The nature of data set [2]: Kinetic solubility in FaSSIF. The following applies: for Solubility (mg/mL) 1 h / Solubility (mg/mL) 2 h / Solubility (mg/mL) 4 h / Solubility (mg/mL) 24 h: FaSSIF, 37° C.; for Solubility (mg/mL) 1 h: drug loading ~10 mg/mL as freebase; for pH 1 h / pH 2 h / pH 4 h / pH 24 h: supernatant, FaSSIF (native pH 6.5). Here is the method: (§1) Kinetic solubility testing was conducted as follows: About 40-55 mg material was weighed into a 5-mL EP pipe. 4 mL of water/bio-relevant media (SGF, FaSSIF, or FeSSIF) was added into the corresponding sample pipe (drug loading: ˜10 mg/mL calculated as freebase). The pipes were capped tightly and the material was verified to be in contact with the media. The sample vials were placed on a roller and start rolling at 37° C. (rate: 25 r/min). Samples were taken at 1, 2, 4, 24 h. For each time point, 1.0 mL of suspension was transferred into a 2-mL centrifuge tube and the samples were centrifuged. The supernatant was filtered via 0.45 μm PTFE membrane and solubility and pH were measured. An XRPD test on residual solids was conducted.

Data set [3] is described as follows: Kinetic solubility in FeSSIF. The following applies: for Solubility (mg/mL) 1 h / Solubility (mg/mL) 2 h / Solubility (mg/mL) 4 h / Solubility (mg/mL) 24 h: 37° C.; for Solubility (mg/mL) 1 h: drug loading ~10 mg/mL as freebase; for Final Form: XRPD of residual solids, 24 h (merged cell); for Solubility (mg/mL) 1 h / Final Form / pH 1 h: 1 h; for Solubility (mg/mL) 2 h / Final Form / pH 2 h: 2 h; for Solubility (mg/mL) 4 h / Final Form / pH 4 h: 4 h; for pH 1 h / pH 2 h / pH 4 h / pH 24 h: supernatant. As to the method:
as §1

A short description of data set [4]: Kinetic solubility in SGF. Conditions: for Solubility (mg/mL) 1 h / Solubility (mg/mL) 2 h / Solubility (mg/mL) 4 h / Solubility (mg/mL) 24 h: SGF, 37° C.; for Solubility (mg/mL) 1 h: drug loading ~10 mg/mL as freebase; for pH 1 h / pH 2 h / pH 4 h / pH 24 h: supernatant, SGF (native pH 1.8). Here is the method:
as §1

Data set [5] can be described thus: Kinetic solubility in water. Conditions: 37° C.; for pH of supernatant: water (native pH 7.6); for Final Form of residual solids (XRPD) / Kinetic solubility: water. Here is the method:
as §1

Where [6] appears, read: 1 h, listed as Isethionate Type A.
The mark [7] stands for this setting: 2 h, listed as Isethionate Type A.
Where [8] appears, read: 4 h, listed as Isethionate Type A.
The mark [9] stands for this setting: 24 h, listed as Isethionate Type A.
[10] abbreviates: 24 h, listed as Mesylate Type A.

Where a name gives a salt, the structure may show the parent alone.

For `CCS(=O)(=O)N1CCN(c2ccc(Nc3ncc(C(N)=O)c(NC4CC4)n3)cc2)CC1` [Compound I esylate Form I, 4-(cyclopropylamino)-2-(4-(4-(ethylsulfonyl)piperazin-1-yl)phenylamino)pyrimidine-5-carboxamide], the “GVS hygroscopicity / moisture uptake” value in data set [1] (between 0 and about 60% RH, 25° C.) is given as “not subject to moisture uptake”. In data set [1] (between about 60% to about 90% RH), the GVS weight uptake entry is on record as “RH; about 5 mg”. Besides, the “GVS mass lost relative to the input weight” value in data set [1] (dried to about 10% RH) is recorded as “about 4.6%”. The “Crystalline form by XRPD post GVS analysis” value in data set [1] is reported as “loss of crystallinity”. In addition, the “Deliquescence in GVS” value in data set [1] (large water uptake about 60 to about 90% RH) was “deliquescence did not result”. Besides, in data set [1] (sorption above about 60% RH), the “GVS weight change (sudden increase in weight)” value is on record as ~35%.

With `CCS(=O)(=O)N1CCN(c2ccc(Nc3ncc(C(N)=O)c(NC4CC4)n3)cc2)CC1` [Compound I isethionate Type A, 4-(cyclopropylamino)-2-(4-(4-(ethylsulfonyl)piperazin-1-yl)phenylamino)pyrimidine-5-carboxamide], in data set [2] (listed as Isethionate Type A), the “Solubility (mg/mL) 1 h” value is reported as 0.020 mg/mL, the “Solubility (mg/mL) 2 h” value was determined as 0.026 mg/mL, the “Solubility (mg/mL) 4 h” value came to 0.018 mg/mL and the “Solubility (mg/mL) 24 h” value worked out at 0.015 mg/mL. Further, in data set [2] (listed as Isethionate Type A), the “pH 1 h” value is 3.9, the “pH 2 h” value was determined as 3.9, the “pH 4 h” value worked out at 3.9 and the “pH 24 h” value is reported as 3.9. In data set [3] (listed as Isethionate Type A), the “Solubility (mg/mL) 1 h” value is on record as 0.0058 mg/mL, the “Solubility (mg/mL) 2 h” value was 0.0053 mg/mL, the “Solubility (mg/mL) 4 h” value is on record as 0.0052 mg/mL and the “Solubility (mg/mL) 24 h” value was determined as 0.0054 mg/mL. For the same compound, in data set [3] (listed as Isethionate Type A), the “Final Form” value is given as “Freebase Form II”, the “pH 1 h” value is recorded as 4.6, the “pH 2 h” value is listed as 4.7 and the “pH 4 h” value was determined as 4.7. Also, the “pH 24 h” value in data set [3] (listed as Isethionate Type A) is listed as 4.6. In data set [4] (listed as Isethionate Type A), the “Solubility (mg/mL) 1 h” value is 0.077 mg/mL, the “Solubility (mg/mL) 2 h” value is 0.081 mg/mL, the “Solubility (mg/mL) 4 h” value came out at 0.073 mg/mL and the “Solubility (mg/mL) 24 h” value came to 0.069 mg/mL. Moreover, in data set [4] (listed as Isethionate Type A), the “pH 1 h” value is recorded as 1.9, the “pH 2 h” value came to 1.9, the “pH 4 h” value is on record as 2.1 and the “pH 24 h” value came to 2.0. In data set [5] (setting [6]), this compound yielded a pH of supernatant of 2.1 and a Kinetic solubility of 1500 µg/mL. In data set [5] (setting [7]), this compound gave a pH of supernatant of 2.0 and a Kinetic solubility of 1300 µg/mL. Also, in data set [5] (setting [8]), the pH of supernatant worked out at 2.1 and the Kinetic solubility came out at 1300 µg/mL. In data set [5] (setting [9]), the pH of supernatant was 2.1 and the Kinetic solubility came out at 1200 µg/mL. In data set [5] (1 h, 2 h, 4 h, 24 h, listed as Isethionate Type A), the “Final Form of residual solids (XRPD)” value is on record as “Freebase Form II”.

For the compound `CCS(=O)(=O)N1CCN(c2ccc(Nc3ncc(C(N)=O)c(NC4CC4)n3)cc2)CC1` [Compound I mesylate Form II, 4-(cyclopropylamino)-2-(4-(4-(ethylsulfonyl)piperazin-1-yl)phenylamino)pyrimidine-5-carboxamide], the GVS water absorbed result in data set [1] (25° C., first scale up material, listed as Comp. I Mesylate Form II) is on record as “About 12 mg”. Further, in data set [1] (desorption), the “GVS total mass lost” value is “about 2%”. Further, the “Crystalline form by XRPD post GVS analysis” value in data set [1] is given as “does not result in a form change”. The “GVS total weight uptake from the starting point” value in data set [1] (sorption, increasing RH) is recorded as ≤ 1.4%.

Take `CCS(=O)(=O)N1CCN(c2ccc(Nc3ncc(C(N)=O)c(NC4CC4)n3)cc2)CC1` [Compound I mesylate Type A, 4-(cyclopropylamino)-2-(4-(4-(ethylsulfonyl)piperazin-1-yl)phenylamino)pyrimidine-5-carboxamide]: in data set [2] (listed as Mesylate Type A), the “Solubility (mg/mL) 1 h” value was determined as 0.062 mg/mL, the “Solubility (mg/mL) 2 h” value was 0.055 mg/mL, the “Solubility (mg/mL) 4 h” value is 0.039 mg/mL and the “Solubility (mg/mL) 24 h” value is recorded as 0.020 mg/mL. In data set [2] (listed as Mesylate Type A), the “pH 1 h” value turned out to be 4.1, the “pH 2 h” value is listed as 3.7, the “pH 4 h” value is 3.6 and the “pH 24 h” value came to 4.0. In data set [3] (listed as Mesylate Type A), the “Solubility (mg/mL) 1 h” value is given as 0.023 mg/mL, the “Solubility (mg/mL) 2 h” value is on record as 0.020 mg/mL, the “Solubility (mg/mL) 4 h” value is on record as 0.0084 mg/mL and the “Solubility (mg/mL) 24 h” value came out at 0.0083 mg/mL. Also, in data set [3] (listed as Mesylate Type A), the “Final Form” value is “Freebase Form II”, the “pH 1 h” value came to 4.7, the “pH 2 h” value was determined as 4.5 and the “pH 4 h” value amounted to 4.6. Besides, the “pH 24 h” value in data set [3] (listed as Mesylate Type A) is 4.6. For the same compound, in data set [4] (listed as Mesylate Type A), the “Solubility (mg/mL) 1 h” value stood at 0.081 mg/mL, the “Solubility (mg/mL) 2 h” value is on record as 0.096 mg/mL, the “Solubility (mg/mL) 4 h” value stood at 0.080 mg/mL and the “Solubility (mg/mL) 24 h” value amounted to 0.076 mg/mL. In data set [4] (listed as Mesylate Type A), the “pH 1 h” value stood at 1.9, the “pH 2 h” value amounted to 2.0, the “pH 4 h” value was determined as 2.0 and the “pH 24 h” value was 1.9. In data set [5] (1 h, listed as Mesylate Type A), this compound came in with a pH of supernatant of 1.9 and a Kinetic solubility of 1400 µg/mL. In data set [5] (2 h, listed as Mesylate Type A), this compound yielded a pH of supernatant of 1.9 and a Kinetic solubility of 1300 µg/mL. Moreover, in data set [5] (4 h, listed as Mesylate Type A), the pH of supernatant worked out at 2.2 and the Kinetic solubility turned out to be 1300 µg/mL. Moreover, in data set [5] (setting [10]), the pH of supernatant is 2.0 and the Kinetic solubility is 1300 µg/mL. The “Final Form of residual solids (XRPD)” value in data set [5] (1 h, 2 h, 4 h, 24 h, listed as Mesylate Type A) is “Freebase Form II”.
